{"source": "patent US8895512B2", "about": "“Composition for improving brain function and method for improving brain function” (Calpis Co., Ltd., priority 2010, dated 2014)", "key": {"[1]": {"system": "scopolamine-induced amnesia", "details": "male ddY mice; single oral dose of 5000 nmol/kg weight (1300 μg/kg) 60 min before Y-shaped maze test; scopolamine 1 mg/kg s.c. 30 min before test", "method": "Water (control), scopolamine alone, or 500 nmol/kg weight or 5000 nmol/kg weight of FP together with scopolamine, was administered to mice, and their respective prophylactic effects against amnesia were evaluated in accordance with a method described in Example 1.\nMale mice (n=15) of the ddY strain (approximately 7-week old) were used, and they took food and water ad lib. Test substances used were 500 mol/kg weight (130 μg/kg weight) or 5000 nmol/kg weight (1300 μg/kg weight) of FP. The test substances were administered to the mice once orally 60 minutes before the execution of a Y-shaped maze test for evaluation of spontaneous alternation behavior. […] The sequence of the arms each of the mice entered was recorded. The number of entries by each of the mice for each of the arms during the measurement time was counted to be the total number of entries. […] The percentage of spontaneous alternation behavior was calculated by dividing the number of spontaneous alternation behavior by a number obtained by subtracting 2 from the total number of entries, and multiplying a resultant number by 100. […] The measured values were expressed in the form of mean±standard error for each group. A significant difference between the control group and the scopolamine control group was calculated using Student's t-test. […]"}, "ACE": {"target": "ACE (Homo sapiens, UniProt P12821)", "sequence (P12821 30-1306, species assumed)": "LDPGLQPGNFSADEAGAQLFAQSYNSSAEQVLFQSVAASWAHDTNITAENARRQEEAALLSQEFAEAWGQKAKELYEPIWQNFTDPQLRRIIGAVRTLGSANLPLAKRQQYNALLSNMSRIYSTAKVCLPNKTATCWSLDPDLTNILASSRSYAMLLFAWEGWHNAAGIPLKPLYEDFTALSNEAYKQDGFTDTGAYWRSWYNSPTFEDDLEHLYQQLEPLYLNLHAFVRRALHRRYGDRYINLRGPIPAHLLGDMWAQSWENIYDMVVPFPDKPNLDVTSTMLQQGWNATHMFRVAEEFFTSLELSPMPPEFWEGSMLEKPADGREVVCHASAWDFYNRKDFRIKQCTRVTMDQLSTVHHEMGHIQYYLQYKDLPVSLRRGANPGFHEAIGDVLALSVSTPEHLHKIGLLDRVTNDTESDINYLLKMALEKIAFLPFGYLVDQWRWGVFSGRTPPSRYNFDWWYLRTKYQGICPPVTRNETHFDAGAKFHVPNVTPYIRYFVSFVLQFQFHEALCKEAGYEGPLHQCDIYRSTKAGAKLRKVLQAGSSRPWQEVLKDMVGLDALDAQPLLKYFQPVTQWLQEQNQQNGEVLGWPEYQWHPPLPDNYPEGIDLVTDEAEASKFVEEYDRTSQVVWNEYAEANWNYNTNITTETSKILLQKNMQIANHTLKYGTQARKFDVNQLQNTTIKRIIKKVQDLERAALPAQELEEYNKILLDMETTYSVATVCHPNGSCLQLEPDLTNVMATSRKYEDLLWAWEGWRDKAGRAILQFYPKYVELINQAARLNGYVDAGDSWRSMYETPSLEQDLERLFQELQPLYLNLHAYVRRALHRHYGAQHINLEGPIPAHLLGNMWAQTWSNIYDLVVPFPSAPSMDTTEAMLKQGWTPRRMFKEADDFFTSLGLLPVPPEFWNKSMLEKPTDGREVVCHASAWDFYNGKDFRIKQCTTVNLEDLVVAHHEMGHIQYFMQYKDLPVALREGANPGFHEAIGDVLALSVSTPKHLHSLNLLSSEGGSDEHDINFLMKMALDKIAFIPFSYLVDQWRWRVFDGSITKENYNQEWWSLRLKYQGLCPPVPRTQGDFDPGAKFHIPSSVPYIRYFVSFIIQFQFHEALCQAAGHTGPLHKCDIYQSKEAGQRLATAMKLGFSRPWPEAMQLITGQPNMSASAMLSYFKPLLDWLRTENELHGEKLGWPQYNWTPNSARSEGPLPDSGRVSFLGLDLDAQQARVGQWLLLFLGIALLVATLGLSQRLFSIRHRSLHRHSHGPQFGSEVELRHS", "details": "reported in reference 3; cited from earlier work"}}}
{"substance": "Phe-Pro", "values": [{"measurement": "prophylactic activity against amnesia (percentage of spontaneous alternation behavior)", "setting": "[1]", "value": "had a prophylactic activity against amnesia"}, {"measurement": "hypotensive lowering activity based on ACE inhibitory activity", "setting": "ACE", "value": "hypotensive lowering activity based on ACE inhibitory activity has been reported"}]}
